We go through one compound from patent US9066861B2 (priority 2009, dated 2015).

Data set [1] in a line: Stability analysis of raw API by stability indicating HPLC method. It is filed as physicochemical. Conditions: for Assay (%) HPLC / Percentage Drop (%) HPLC / loss in 3 Months: raw API; for Assay (%) HPLC / Percentage Drop (%) HPLC: after 3 Months. An excerpt: (§1) In both studies the * Initial denotes the results of the samples tested at the time of receipt of the API from the supplier.

Data set [2] can be described thus: Stability analysis of raw API by titration method (BP). It is filed as physicochemical. Particulars: after 3 Months.
Source text: as §1

For `CC(=O)O[C@H]1C[C@@]2(C)[C@@H](C[C@@H](O)[C@H]3[C@@]4(C)CC[C@@H](O)[C@@H](C)[C@@H]4CC[C@@]32C)/C1=C(\CCC=C(C)C)C(=O)O` [Sodium Fusidate], the “Initial (%)” value in data set [1] (raw API tested at the time of receipt from the supplier, method not stated) was 98.7%. For the same compound, the “Assay (%) HPLC” value amounted to 92.96% in data set [1] (45° C. (C) closed Petri dish), 92.65% in data set [1] (45° C. (O) open Petri dish), 97.67% in data set [1] (RT (C) closed Petri dish) and 96.25% in data set [1] (RT (O) open Petri dish). Further, the “Percentage Drop (%) HPLC” value in data set [1] (45° C. (C) closed Petri dish) came to 5.74%; in data set [1] (45° C. (O) open Petri dish) it was 6.05%; in data set [1] (RT (C) closed Petri dish) it was 1.03%; in data set [1] (RT (O) open Petri dish), 2.45%. For the same compound, the “loss in 3 Months” value in data set [1] (45° C. (open condition)) is given as “about 6%”; in data set [1] (room temperature (open condition)), “about 2.5%”. Besides, the “stability as an API, Sodium Fusidate compared with Fusidic acid” value in data set [1] (raw APIs, Tables 1 and 2) was “significantly more stable than Fusidic acid”. The “Assay (%) Titration” value in data set [2] (45° C. (C) closed Petri dish) is recorded as 97.16%; in data set [2] (45° C. (O) open Petri dish) it was 97.07%; in data set [2] (RT (C) closed Petri dish), 98.85%; in data set [2] (RT (O) open Petri dish), 97.71%. Further, the “Percentage Drop (%) Titration” value in data set [2] (45° C. (C) closed Petri dish) is given as 1.54%; in data set [2] (45° C. (O) open Petri dish), 1.63%; in data set [2] (RT (C) closed Petri dish), −0.15%; in data set [2] (RT (O) open Petri dish), 0.99%.
